Key:
HepG2 cells = assay: Mitochondrial transmembrane potential, JC-1 staining; type: cell-based, human; details: 2.5, 2.75 and 3 μg/mL for 6 h
Protocol: Therefore, we measured the Δψm in 1-treated HepG2 cells and control cells using JC-1 staining, and the results were shown in Figure 4. The aggregated JC-1 within normal mitochondria in HepG2 cells was dispersed to the monomeric form (green fluorescence) after treatment with 1 for 6 h. […] After treatment with 1 at 3 μg/mL, the red fluorescence disappeared and pure green fluorescence only occurred in HepG2 cells.
After treatment with 1 at the concentration of 0, 2.5, 2.75 and 3 μg/mL for 6 h, the cells were harvested, washed twice with PBS, and then incubated with 500 μL of JC-1 staining solution (5 μg/mL) at 37 °C for 30 min [43]. The stained cells were rinsed twice with PBS and resuspended in medium. The Δψm was monitored by determining the relative amounts of dual emissions from mitochondrial JC-1 monomers (green fluorescence) to aggregates (red fluorescence) using an Olympus fluorescent microscope under Argon-ion 488 nm laser excitation.

[1] = system: Caspase-3, Caspase-8 and Caspase-9 mRNA in HepG2 cells; assay: RT-PCR, Caspase-3, Caspase-8 and Caspase-9 mRNA expression; type: cell-based, human
From the text: Caspases play an important role in cell apoptosis. Activation of caspase appears to be directly responsible for many molecular and structural changes in apoptosis. The caspase-dependent process is associated with two pathways of anticancer drug-induced apoptosis, the extrinsic (death receptor) pathway and the intrinsic (mitochondrial) pathway. The extrinsic pathway is initiated by death ligands, such as FasL, leading to cleavage of pro-Caspase-8 to its active form, which subsequently activates downstream effectors such as Caspase-3. The intrinsic pathway is characterized by mitochondria dysfunction, resulting in the reduction of mitochondrial transmembrane potentials, mitochondrial translocation of the pro-apoptotic Bax protein, cytochrome c release and activation of downstream effector caspases such as Caspase-9 [39, 40]. Caspase-3 is one of the downstream effectors of the caspase family, and is considered to involve both the mitochondrial apoptotic pathway and the death receptor pathway. […]
Figure 6 Effects of 1 on the mRNA expression level of Caspase-3, Caspase-8 and Caspase-9 in HepG2 cells. […] The mRNA expression levels of β-actin, Caspase-3, Caspase-8 and Caspase-9 were detected by RT-PCR using specific primers. […]
Total RNA was extracted with TRIzol reagent (Invitrogen, Grand Island, NY, USA) according to the manufacturer’s instructions, and reverse transcription was performed as previously. […] Semi-quantitative RT-PCR was performed using β-actin as an internal control to normalize gene expression for the PCR templates. The PCR products were analyzed by electrophoresis on a 1.5% agarose gel containing goldview (5 μL/100 mL), and the amplified bands were visualized and photographed using JS-680B Gel Documentation and Analysis System (Shanghai Peiqing Science and Technology Co., Ltd., Shanghai, China). The size of the amplified fragments was determined by comparison with a standard DNA marker.

[2] = system: human gastric cancer MKN-45 cells; details: read-out: IC50 against MKN-45 cells; cited from earlier work
Top2a = system: Top2a; design: method as in PMID 19773249; details: interference in DNA binding, impairment of Top2-mediated DNA cleavage and relegation; cited from earlier work
[3] = no difference among concentrations at 2 h

SMILES: COC1C(O)C(CO)OC(OC2C(O)C(CO)OC(OC3C(C)OC(OC4C(OC5CCC6(C)C7=CC(O)C89C(=O)OC(C)(CCCC(C)C)C8(O)CCC9(C)C7CCC6C5(C)C)OCC(OS(=O)(=O)O)C4O)C(O)C3O)C2O)C1O.[Na+] (stereo not drawn) [Echinoside A (1), Echinoside A]
- mitochondrial transmembrane potential (Δψm) (HepG2 cells): significantly decreased
- expression level of Caspase-8 mRNA [1, 3]: significantly up-regulated
- expression level of Caspase-9 mRNA [1, 3]: significantly up-regulated
- expression level of Caspase-3 mRNA ([1]; time- and dose-dependent): markedly up-regulated
- IC50 [2]: 1.86 µM
- Top2 inhibition (Top2a): non-intercalative Top2 inhibitor
